Among the data in US20050026952A1, “Nicotinamide derivatives useful as PDE4 inhibitors” (Pfizer Inc, priority 2003, published 2005) are IC50 values, retold here.

Usually IC50 stands for the concentration that gives 50% inhibition. Read a low IC50 as higher potency.

In the test the test system is TNFα release from human peripheral blood mononuclear cells. Put plainly: Inhibition of LPS-stimulated TNFα release from human peripheral blood mononuclear cells (TNFα screen). The following applies: human PBMC, LPS stimulation, 18 hours incubation, TNFα in supernatant by ELISA. Type of test: cell-based. How it is done: Venous blood is collected from healthy volunteers and the mononuclear cells purified by centrifugation through Histopaque (Ficoll) cushions. TNFα production from these cells is stimulated by addition of lipopolysaccharide. After 18 hours incubation in the presence of LPS, the cell supernatant is removed and the concentration of TNFα in the supernatant determined by ELISA. Addition of PDE4 inhibitors reduces the amount of TNFα produced. An IC50 is determined which is equal to the concentration of compound that gives 50% inhibition of TNFα production as compared to the LPS stimulated control wells.
On the technique in general: ELISA stands for enzyme-linked immunosorbent assay.
`CSc1cccc(Oc2ncc(F)cc2C(=O)N[C@H]2CC[C@@H](NS(=O)(=O)c3cccc4nsnc34)CC2)c1` [Example 13, Syn-N-[4-(Benzo[1,2,5]thiadiazole-4-sulphonylamino)-cyclohexyl]-5-fluoro-2-(3-methylsulphanyl-phenoxy)-nicotinamide] returned an IC50 of 0.09 nM. In turn, `CSc1cc(Oc2ncc(F)cc2C(=O)N[C@H]2CC[C@@H](NS(=O)(=O)c3cc(C)ccc3O)CC2)ccc1F` [Example 16, Syn-5-Fluoro-N-[4-(2-hydroxy-5-methyl-benzenesulphonylamino)-cyclohexyl]-2-(4-fluoro-3-methylsulphanyl-Phenoxy)-nicotinamide] showed an IC50 of 3.5 nM. The result for `CSc1cccc(Oc2ncc(F)cc2C(=O)N[C@H]2CC[C@@H](NS(=O)(=O)c3cccc4nonc34)CC2)c1` [Example 12, Syn-N-[4-(Benzo[1,2,5]oxadiazole-4-sulphonylamino)-cyclohexyl]-5-fluoro-2-(3-methylsulphanyl-phenoxy)-nicotinamide] reads 0.3 nM; that for `CSc1cccc(Oc2ncc(F)cc2C(=O)N[C@H]2CC[C@@H](NS(=O)(=O)c3cccc4cccnc34)CC2)c1` [Example 11, Syn-5-Fluoro-2-(3-methylsulphanyl-phenoxy)-N-[4-(quinoline-8-sulphonylamino)-cyclohexyl]-nicotinamide], 0.07 nM; that for `CSc1cccc(Oc2ncc(F)cc2C(=O)N[C@H]2CC[C@@H](NS(=O)(=O)c3ccc(C)cc3O)CC2)c1` [Example 15, Syn-5-Fluoro-N-[4-(2-hydroxy-4-methyl-benzenesulphonylamino)-cyclohexyl]-2-(3-methylsulphanyl-phenoxy)-nicotinamide], 2 nM. The value for `CSc1cccc(Oc2ncc(F)cc2C(=O)N[C@H]2CC[C@@H](NS(=O)(=O)c3c(O)ccc4nsnc34)CC2)c1` [Example 14] was 1 nM.
